Target: human FXR (NR1H4) (Homo sapiens (Human), UniProt Q96RI1)
Test: Human FXR (NR1H4) Assay (Gal4 promoter driven luciferase reporter, CHO cells)
Assay type: cell-based
Conditions: CHO reporter cells expressing human NR1H4; for EC50: 22 hours incubation, potency ranges; for Efficacy (%): normalized to CDCA set as 100%
Description: Human FXR (NR1H4) Assay Determination of a ligand mediated Gal4 promoter driven transactivation to quantify ligand binding mediated activation of FXR. FXR Reporter Assay kit purchased from Indigo Bioscience (Catalogue number: IB00601) to determine the potency and efficacy of compound developed by Enanta that can induce FXR activation. The principle application of this reporter assay system is to quantify functional activity of human FXR. The assay utilizes non-human mammalian cells, CHO (Chinese hamster ovary) cells engineered to express human NR1H4 protein (referred to as FXR). Reporter cells also incorporate the cDNA encoding beetle luciferase which catalyzes the substrates and yields photon emission. Luminescence intensity of the reaction is quantified using a plate-reading luminometer, Envision. Reporter Cells include the luciferase reporter gene functionally linked to an FXR responsive promoter. Thus, quantifying changes in luciferase expression in the treated reporter cells provides a sensitive surrogate measure of the changes in FXR activity. […] The assay is according to the manufacturer's instructions. In brief, the assay was performed in white, 96 well plates using final volume of 100 μl containing cells with different doses of compounds. Retrieve Reporter Cells from −80° C. storage. Perform a rapid thaw of the frozen cells by transferring a 10 ml volume of 37° C. cell recovery medium into the tube of frozen cells. Recap the tube of Reporter Cells and immediately place it in a 37° C. water bath for 5-10 minutes. Retrieve the tube of Reporter Cell Suspension from the water bath. Sanitize the outside surface of the tube with a 70% alcohol swab, and then transfer it into the cell culture hood. Dispense 90 μl of cell suspension into each well of the 96-well Assay Plate. Transfer the plate into 37° C. incubator, allowing the cells adherent to the bottom of the well. Dilute compounds in Dilution Plate (DP), and administrate to cells at Assay Plate (AP). DMSO content of the samples was kept at 0.2%. Cells were incubated for additional 22 hours before luciferase activities were measured. Thirty minutes before intending to quantify FXR activity, remove Detection Substrate and Detection Buffer from the refrigerator and place them in a low-light area so that they may equilibrate to room temperature. Remove the plate's lid and discard all media contents by ejecting it into an appropriate waste container. Gently tap the inverted plate onto a clean absorbent paper towel to remove residual droplets. Cells will remain tightly adhered to well bottoms. Add 100 μl of luciferase detection reagent to each well of the assay plate. Allow the assay plate to rest at room temperature for at least 5 minutes following the addition of LDR. Set the instrument (Envision) to perform a single 5 second “plate shake” prior to reading the first assay well. Read time may be 0.5 second (500 mSec) per well.

human FXR (NR1H4), sequence (Q96RI1 whole entry, the tested form may be a part): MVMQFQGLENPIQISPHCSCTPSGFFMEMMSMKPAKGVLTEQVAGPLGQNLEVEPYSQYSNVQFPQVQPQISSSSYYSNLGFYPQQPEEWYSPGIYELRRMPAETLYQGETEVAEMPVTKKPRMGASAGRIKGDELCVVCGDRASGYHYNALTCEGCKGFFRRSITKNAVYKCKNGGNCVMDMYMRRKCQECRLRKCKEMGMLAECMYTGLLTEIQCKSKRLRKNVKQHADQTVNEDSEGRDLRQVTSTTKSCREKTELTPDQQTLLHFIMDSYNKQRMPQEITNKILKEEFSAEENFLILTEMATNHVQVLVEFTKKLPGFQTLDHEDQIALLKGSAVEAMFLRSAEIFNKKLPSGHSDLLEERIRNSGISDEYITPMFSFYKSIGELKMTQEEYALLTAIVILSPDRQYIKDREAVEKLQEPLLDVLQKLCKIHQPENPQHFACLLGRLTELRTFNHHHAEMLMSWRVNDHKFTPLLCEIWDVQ

Row | SMILES | EC50 [µM] | Efficacy (%)
1 | CN(Cc1ccc(C(=O)NS(=O)(=O)C2CC2)cc1)c1ccc(OCc2c(-c3c(Cl)cccc3Cl)noc2C2CC2)nc1C(F)(F)F [Example 1] | 0.1 to 1 | 145
2 | CN(Cc1ccc(C(=O)NS(=O)(=O)c2ccc(C(C)(C)C)cc2)cc1)c1ccc(OCc2c(-c3c(Cl)cccc3Cl)noc2C2CC2)nc1C(F)(F)F [Example 2] | 1 to 10 | 108
3 | CN(Cc1ccc(C(=O)NS(=O)(=O)N(C)C)cc1)c1ccc(OCc2c(-c3c(Cl)cccc3Cl)noc2C2CC2)nc1C(F)(F)F [Example 3] |  | 153

Reference: patent US10138228B2, “Isoxazole derivatives as FXR agonists and methods of use therof” (Enanta Pharmaceuticals, Inc., priority 2016, dated 2018)
